From patent US8501734B2, “Medical intervention in haematological cancers” (Oncotyrol-Center for Personalized Cancer Medicine GmbH …, priority 2008, dated 2013)
Where a name gives a salt, the structure may show the parent alone.

What was measured:
OPM2 cells = experiment: Annexin V/PI apoptosis assay (FACS), OPM2 cells; format: cell-based; set-up: apoptosis induction: unit not given here; conditions: OPM2 cells; for apoptosis induction, combination: Akt inhibitor + Imiquimod 20 μg/ml; for apoptosis induction, single agent: Imiquimod 20 μg/ml or Akt inhibitor alone
Protocol: (§1) After treatment adherent cells were trypsinized (as described before), and resuspended in corresponding full medium. Suspension cells or trypsinized adherent cells, supernatant and washing solution (1×PBS from washing before trypsinization) were pooled and then spun down (300 g for 3 min) washed in 2 ml and resuspended in 1000 of annexin V binding buffer and mixed with 2 μg/ml annexin V-Allophycocyanin (APC) (BD-Pharmingen, San Diego, Calif., USA) and 50 ng/ml of propidium iodide (PI; Sigma Aldrich). At least 10.000 cells were measured per sample using a Becton Dickinson FACSCalibur flow Cytometer (San Jose, Calif., USA). Percentage of Annexin V negative and PI negative cells were depicted in the figures. For the analysis of the pro-apoptotic activity of Imiquimod® in primary MM cells and non-malignant BMMCs, 5×10^5 cells BMMCs cells were treated with or without 40 μg/ml Imiquimod® for the indicated time periods. Cells were then harvested and washed twice with PBS. Detection of apoptotic cells was performed using the annexin V/PI assay according to manufacturers' instruction. Briefly, BMMCs were stained with a mixture of annexin V/FITC (Alexis Coorp., Laeufelfingen, Switzerland), propidium iodide (Sigma), anti-CD38-PE and anti-CD45-PC5 for 15 min at room temperature and immediately analyzed by flow cytometry. The percentages of viable cells (i.e. cells negative for annexin V/FITC and PI) within the MM (CD38^posCD45^low/absent) and non-MM fraction (CD38^neg/CD45^pos) were determined by flow cytometry.
Cells were cultured as described before and, treated with 40 μg/ml Imiquimod® or Gardiquimod® for 24 h, and apoptosis was assayed by AnnexinV/PI staining and FACS analysis.
(§2) Adherent cells were grown in 24-well plates to confluence and treated with 40 μg/ml Imiquimod® for 24 h. Cells were then trypsinized, suspended in full medium, stained for AnnexinV/PI and apoptosis was measured as described before. Suspension cells (250.000) were treated with 40 μg/ml Imiquimod® for 24 h, stained for Annexin/PI and apoptosis was measured as described above (Annexin V/Propidium Iodide apoptosis Assay).
(§3) OPM-2 and U266 cells (2.5×10^5 in 500 μl) were treated with either Imiquimod® alone (10 μg/500 μl), various inhibitors/drugs alone or with the combination of Imiquimod® and inhibitors for 24 or 48 h. In the controls the solvent of the drug has been added in appropriate amounts. Cells were then AnnexinV/PI stained and apoptosis measured as described before.

U266 cells = experiment: Annexin V/PI apoptosis assay (FACS), U266 cells; format: cell-based; set-up: apoptosis induction: unit not given here; further: key: 0 for no; + for low; ++: + indicates the range of apoptosis induction; +++: + indicates the range of apoptosis induction; ++++ for very strong apoptosis induction
Protocol: as §1, §2, §3

Flk-1 = conditions: cited from earlier work
[1] = in vivo; cited from earlier work
Akt phosphorylation = Akt phosphorylation by Western blot with phospho-Akt antibody in OPM2 cells; format: cell-based
Protocol: Cells were lysed in lysis-IP-Buffer supplemented with protease inhibitors and sodium orthovanadate. 10 μg of lysate were separated by SDS-PAGE (10% polyacrylamide) and transferred to methanol activated Hypond-P PVDF-membranes (Amersham, Freiburg, Germany) by semi-dry blotting. Membranes were blocked in a 3% bovine serum albumin solution or 5% non fat dry milk solution in phosphate buffered saline (PBS) with 0.1% Tween 20 (PBT). Primary antibodies were applied in blocking solution for 1 h at room temperature or over night at 4° C. Membranes were washed in PBT and incubated with corresponding secondary antibodies in 5% non fat dry milk in PBT for 1 h at room temperature. Cells were washed with PBT, incubated with ECL solution and exposed in a Fluorchem 5500 (Biozym, Oldendorf, Germany).
The efficiency of the inhibition of Akt phosphorylation was monitored by Western blotting with antibodies against phospho-Akt. Antibody for actin served as a loading control (FIG. 7B).

Akt = conditions: cited from earlier work
PI 3-K, PDK1, or SGK1 = conditions: cited from earlier work
[2] = cited from earlier work
[3] = tested on: Rh (rhabdomyosarcoma) cell lines; conditions: read-out: IC50 growth suppression; cited from earlier work
[4] = tested on: Raji, Daudi, Ramos, Jurkat, C7H2 cell lines; experiment: Annexin V/PI apoptosis assay, non-multiple myeloma suspension cell lines; format: cell-based; conditions: Raji, Ramos, Jurkat, 24 h
Protocol: as §1, §2

[5] = tested on: peripheral blood mononuclear cells (PBMCs); experiment: Annexin V/PI apoptosis assay, PBMCs from healthy donors; format: cell-based, human; conditions: PBMCs from healthy donors, 48 h, 5 μM Akti1/2 + 20 μg/ml Imiquimod
Protocol: PBMCs were prepared using separation via Ficoll density gradient centrifugation (Biochrom AG, Berlin, Germany) according to the protocol of the manufacturer.
as §1, §2

[6] = tested on: multiple myeloma cell lines; experiment: Annexin V/PI apoptosis assay, multiple myeloma cell line panel; format: cell-based; conditions: OPM2, LP-1, RPMI, U266, 24 h
Protocol: as §1, §2

[7] = tested on: PH domain-lacking Akts, PKA, PKC, and SGK; conditions: concentrations as high as 50 μM; cited from earlier work
[8] = 24 h, Imi 20 μg/ml + drug 10 μM
[9] = 24 h, Imi 20 μg/ml + drug 50 μM
[10] = 48 h, Imi 20 μg/ml + drug 10 μM
[11] = 48 h, Imi 20 μg/ml + drug 50 μM
[12] = 24 h, Imi 20 μg/ml + drug 1 ng/ml
[13] = 24 h, Imi 20 μg/ml + drug 10 ng/ml
[14] = 24 h, Imi 20 μg/ml + drug 50 ng/ml
[15] = 48 h, Imi 20 μg/ml + drug 1 ng/ml
[16] = 48 h, Imi 20 μg/ml + drug 10 ng/ml
[17] = 48 h, Imi 20 μg/ml + drug 50 ng/ml

CC(C)c1cc(/C=C(\C#N)C(=O)NCCCc2ccccc2)cc(C(C)C)c1O [SU1498]
apoptosis induction (OPM2 cells; 24 h, Imi 20 μg/ml + drug 1 μM): + | apoptosis induction (OPM2 cells; [8]): ++ | apoptosis induction (OPM2 cells; [9]): ++ | apoptosis induction (OPM2 cells; 24 h, drug alone 1 μM): 0 | apoptosis induction (OPM2 cells; 24 h, drug alone 10 μM): + | apoptosis induction (OPM2 cells; 24 h, drug alone 50 μM): + | apoptosis induction (OPM2 cells; 48 h, Imi 20 μg/ml + drug 1 μM): ++ | apoptosis induction (OPM2 cells; [10]): +++ | apoptosis induction (OPM2 cells; [11]): +++ | apoptosis induction (OPM2 cells; 48 h, drug alone 1 μM): 0 | apoptosis induction (OPM2 cells; 48 h, drug alone 10 μM): + | apoptosis induction (OPM2 cells; 48 h, drug alone 50 μM): ++ | apoptosis induction (U266 cells; 24 h, Imi 20 μg/ml + drug 1 μM): + | apoptosis induction (U266 cells; [8]): ++ | apoptosis induction (U266 cells; [9]): ++ | apoptosis induction (U266 cells; 24 h, drug alone 1 μM): 0 | apoptosis induction (U266 cells; 24 h, drug alone 10 μM): + | apoptosis induction (U266 cells; 24 h, drug alone 50 μM): + | apoptosis induction (U266 cells; 48 h, Imi 20 μg/ml + drug 1 μM): ++ | apoptosis induction (U266 cells; [10]): ++ | apoptosis induction (U266 cells; [11]): ++ | apoptosis induction (U266 cells; 48 h, drug alone 1 μM): 0 | apoptosis induction (U266 cells; 48 h, drug alone 10 μM): ++ | apoptosis induction (U266 cells; 48 h, drug alone 50 μM): ++ | IC50 (Flk-1): 0.7 µM

CCn1c(-c2nonc2N)nc2c(C#CC(C)(C)O)ncc(OC[C@H]3CCCNC3)c21 [GSK690693]
reason for withdrawal and termination of clinical phase I studies [1]: hyperglycaemia

CCN(CC)CCCCN1c2ccccc2Oc2ccc(Cl)cc21 [AktX, 10-(4′-(N-diethylamino)butyl)-2-chlorophenoxazine, HCl]
apoptosis induction, combination (OPM2 cells; 24 h): nearly all cells died | apoptosis induction, single agent (OPM2 cells; 24 h): some apoptosis | phosphorylation of Akt (Akt phosphorylation): inhibited the phosphorylation of Akt | complete inhibition of Akt phosphorylation and in vitro kinase activity (Akt): < 5 µM | effect on PI 3-K, PDK1, or SGK1 (PI 3-K, PDK1, or SGK1): minimal effect | solubility [2]: soluble in H2O | IC50 [3]: 2 to 5 µM

CC(C)C[C@H](NC(=O)[C@H](Cc1ccccc1)NC(=O)c1cnccn1)B(O)O [Velcade]
apoptosis induction (OPM2 cells; [12]): + | apoptosis induction (OPM2 cells; [13]): + | apoptosis induction (OPM2 cells; [14]): + | apoptosis induction (OPM2 cells; 24 h, drug alone 1 ng/ml): 0 | apoptosis induction (OPM2 cells; 24 h, drug alone 10 ng/ml): + | apoptosis induction (OPM2 cells; 24 h, drug alone 50 ng/ml): + | apoptosis induction (OPM2 cells; [15]): ++ | apoptosis induction (OPM2 cells; [16]): ++ | apoptosis induction (OPM2 cells; [17]): +++ | apoptosis induction (OPM2 cells; 48 h, drug alone 1 ng/ml): 0 | apoptosis induction (OPM2 cells; 48 h, drug alone 10 ng/ml): +++ | apoptosis induction (OPM2 cells; 48 h, drug alone 50 ng/ml): +++ | apoptosis induction (U266 cells; [12]): + | apoptosis induction (U266 cells; [13]): + | apoptosis induction (U266 cells; [14]): ++ | apoptosis induction (U266 cells; 24 h, drug alone 1 ng/ml): 0 | apoptosis induction (U266 cells; 24 h, drug alone 10 ng/ml): ++ | apoptosis induction (U266 cells; 24 h, drug alone 50 ng/ml): ++ | apoptosis induction (U266 cells; [15]): + | apoptosis induction (U266 cells; [16]): ++ | apoptosis induction (U266 cells; [17]): ++ | apoptosis induction (U266 cells; 48 h, drug alone 1 ng/ml): 0 | apoptosis induction (U266 cells; 48 h, drug alone 10 ng/ml): +++ | apoptosis induction (U266 cells; 48 h, drug alone 50 ng/ml): +++

O=c1[nH]c2ccccc2n1C1CCN(Cc2ccc(-c3nc4cc5nc[nH]c5cc4nc3-c3ccccc3)cc2)CC1 [Akti1/2, 1,3-Dihydro-1-(1-((4-(6-phenyl-1H-imidazo[4,5-g]quinoxalin-7-yl)phenyl)methyl)-4-piperidinyl)-2H-benzimidazol-2-one]
apoptosis induction, combination (OPM2 cells; 24 h): nearly all cells died | apoptosis induction, single agent (OPM2 cells; 24 h): some apoptosis | apoptosis induction, combination ([4]; Daudi, C7H2, 5 μM Akti1/2 + 20 μg/ml Imiquimod): affected all cell lines to some extent | apoptosis induction ([4]; C7H2 (exception Daudi), 5 μM alone): only a mild effect | sensitivity of PBMCs (general toxicity of the combination) [5]: as sensitive as U266 cells | phosphorylation of Akt (Akt phosphorylation): inhibited the phosphorylation of Akt | apoptosis induction, combination ([6]; Akti1/2 5 or 10 μM + Imiquimod 20 μg/ml): super-additive effect | apoptosis induction, single agent ([6]; Imiquimod 20 μg/ml or Akti1/2 5 or 10 μM alone): some apoptosis | inhibitory effect [7]: does not exhibit any inhibitory effect | solubility [2]: soluble in DMSO
